Measured values taken from patent US10806729B2, “Quinoline derivatives for use in the treatment or prevention of viral infection” (ABIVAX, priority 2015, dated 2020).

Experiments:
HIV-1 = test system: HIV-1
Experimental: Resistance to Compound 22 was tested on human PBMCs and compared to current therapies. […] Various classes of antiviral agents can affect the life cycle of HIV-1 in different manners. […] The selection of drug resistant mutants in vitro can be readily accomplished by maintaining the virus in a state of sub-optimal growth, regulated by slowly increasing the amount of drug pressure applied. This technique mimics the consequences of drug therapy in patients. Therefore, in this way, novel compounds can be assessed for their selection profile in order to evaluate the likelihood of emergence of HIV-1 drug resistance in future clinical trials. In addition, combinations of drugs can be investigated in the same manner.

[1] = test system: alternative splicing events of endogenous genes; assay: RT-PCR analysis of global alternative splicing events in PBMC samples; type: cell-based, human
Description: Quantification of non-viral RNA splicing is achieved using the protocols detailed in […] et al. (Multiple alternative splicing markers for ovarian cancer. Cancer Res. 68, 657-663 (2008)) and Venables et al. (Cancer-associated regulation of alternative splicing. Nat. Struct. Mol. Biol. 16, 670-676 (2009)). […] These 382 alternative splicing events (ASEs) represent a high throughput random snapshot of global alterations of alternative splicing. We performed high throughput PCR analysis of these (essentially random) 382 ASEs on multiple PBMC samples, either from untreated (cells) or treated with DMSO, Compound 22 or with the control antiviral drug (Darunavir). Analysis of the data allowed further stringent quality controls; ASEs were only considered if >75% of the products ran at the expected mobilities (i.e. if the reactions were pure) and if total expected PCR concentration was higher than 20 nM (i.e. if the reactions were strong) which led to 264 remaining ASEs.

YU2 HIV-1 virus = assay: NSG humanized mice infected with YU2 HIV-1 virus, viral load; type: in vivo, mouse
Experimental: All manipulations of NSG-HIS mice were performed under laminar flow. Gavage of mice was performed daily with a stainless steel gavage needle (Straight 22 Gauge, 1.4 inch in length). […] Mice were monitored three times a week for symptoms or signs of adverse events, according to a standard score sheet.
Mice were infected intraperitoneally i.p. with JR-CSF, 1×10^3 TCID50 per mouse and HIV YU-2, 1×106 TCID50 per mouse. HIV RNA plasma levels were measured by RT-PCR (Amplicor HIV-1 test or AmpliPrep/COBAS TaqMan HIV-1 Test, Roche) at various times after infection.

JRCSF HIV-1 strain = assay: Reconstituted SCID mice infected with JRCSF HIV-1 strain; type: in vivo, mouse
Experimental: FIG. 3. Efficacy of Compound 22 to inhibit viral replication in humanized mice. A) Reconstituted SCID mice were infected with JRCSF HIV-1 strain by intraperitoneal injection. Control group received by gavage labrafil and 5% DMSO (n=15) and treated group 20 mg/kg b.i.d of Compound 22 in labrafil and 5% DMSO (n=14) for 15 days. Two independent experiments were performed with 5 and 10 reconstituted mice for each group. Viral load was assessed by measuring viral RNA using the Amplicor HIV-1 Monitor from Roche. B) FACS analysis was performed on peritoneal wash at day 15 post-treatment to assess the CD8/CD4 ratio. C) Engrafted NSG humanized mice were treated by oral gavage with Compound 22 at either 20 mg or 40 mg/kg once a day for 30 days and indicated lymphocyte populations (CD45+; CD4+ and CD8+) were monitored by FACS analysis. D) NSG humanized mice were infected with the YU2 HIV-1 virus and treated either by oral gavage with Compound 22 at 40 mg/kg once a day for 30 days or by HAART (3TC-Tenofovir-Raltegravir and AZT). […] Viral load was assessed by measuring viral RNA using the Amplicor HIV-1 Monitor from Roche. […]
Briefly, TCID50 (tissue culture infectious dose 50%) was determined by infecting human CD8+ T-cell-depleted peripheral blood mononuclear cells (PBMCs) from three donors which were stimulated by addition of IL-2, PHA and anti-CD3 beads (Dynal 11131D, Life Technologies). […] HIV RNA plasma levels were measured by RT-PCR (Amplicor HIV-1 test or AmpliPrep/COBAS TaqMan HIV-1 Test, Roche) at various times after infection.
Cell suspensions were labeled with anti-human monoclonal antibodies (mAb) targeting the following cell-surface markers: CD45-FITC, CD3-PE, CD4-Pe Cy7, CD8-BV421 and CD19-APC (all from Biolegend). Washing and reagent dilutions were done with FACS buffer (PBS containing 2% fetal calf serum and 0.05% sodium azide (NaN3). All acquisitions were performed on a Cyan ADP (Beckman Coulter) flow cytometer. Data were analyzed with FlowJo software (Ashland, Oreg.). Cellular debris and dead cells were excluded by their light-scattering characteristics.

[2] = test system: lymphocyte populations (CD45+; CD4+ and CD8+); assay: Lymphocyte populations in engrafted humanized mice treated for 30 days; type: in vivo; conditions: 20 mg/kg or 40 mg/kg for one month, compared to controls without treatment
Experimental: NOD.scid.IL2R−/− (NSG) mice were bred and maintained in individual ventilated cages and were fed autoclaved food and water.
Briefly, newborn (<5 days old) NSG mice received sub-lethal (1Gy) total body irradiation with a Cs source, and then received 2×105 transduced or untransduced CD34+ human HSCs using a 50 μl Hamilton syringe via the intrahepatic (i.h.) route. All manipulations of NSG-HIS mice were performed under laminar flow. […] Mice were monitored three times a week for symptoms or signs of adverse events, according to a standard score sheet.

[3] = test system: resistant mutants of NL4.3 strain (K103N, K65R and M184V); conditions: human PBMCs, NL4.3 mutants K103N
[4] = 20 mg/kg twice a day, FACS at day 15

FC(F)(F)Oc1ccc(Nc2ccc3cccc(Cl)c3n2)cc1 [Compound 22, 8-chloro-N-(4-(trifluoromethoxy)phenyl)quinolin-2-amine]
genotoxicity (HIV-1; conclusion drawn from the mutation selection results): not genotoxic | Time of Selection (weeks) (HIV-1; human PBMCs, increasing drug pressure): 24 weeks | resistance-inducing mutations detected after treatment (HIV-1; treatment for at least 24 weeks): no resistance-inducing mutations detected | global effect on pre-mRNA splicing [1]: no global effect | viral load during treatment (YU2 HIV-1 virus; 40 mg/kg daily, 30 days of treatment): reduced the viral load | time the viral load remained low after treatment termination (YU2 HIV-1 virus; after 30 days of treatment): at least 50 days | viral load (viral RNA) (JRCSF HIV-1 strain; 20 mg/kg twice a day oral gavage, 15 days of treatment): significantly reduce the viral load | CD8+/CD4+ ratio (JRCSF HIV-1 strain; [4]): restores CD8+/CD4+ ratio back to that of non-infected mice | depletion of CD4+ cells following infection (JRCSF HIV-1 strain; [4]): prevents depletion of CD4+ cells | engraftment values of CD45+ cells and ratio of CD8+/CD4+ [2]: neither alters engraftment values of CD45+ cells nor the ratio of CD8+/CD4+ | inhibition of replication of viral strains harbouring resistance mutations (RT activity) [3]: very efficiently inhibits
